Data on 21 molecules can be found in US20070072920A1, “Phenylethylamine analogs and their use for treating glaucoma” (Alcon, Inc., priority 2005, published 2007).

What is called EC50 is the concentration that produces a half-maximal response. For orientation: Emax means the maximal effect, on the per cent scale that the assay sets. Usually IC50 stands for the concentration at which inhibition is half-maximal.

Test [1] deals with T1, 5-HT2 receptor in A7r5 rat vascular smooth muscle cells (Rattus norvegicus, UniProt P14842).
T1 construct: endogenous in cells; host or cells: A7r5 rat vascular smooth muscle cells
T1 sequence (P14842 whole entry): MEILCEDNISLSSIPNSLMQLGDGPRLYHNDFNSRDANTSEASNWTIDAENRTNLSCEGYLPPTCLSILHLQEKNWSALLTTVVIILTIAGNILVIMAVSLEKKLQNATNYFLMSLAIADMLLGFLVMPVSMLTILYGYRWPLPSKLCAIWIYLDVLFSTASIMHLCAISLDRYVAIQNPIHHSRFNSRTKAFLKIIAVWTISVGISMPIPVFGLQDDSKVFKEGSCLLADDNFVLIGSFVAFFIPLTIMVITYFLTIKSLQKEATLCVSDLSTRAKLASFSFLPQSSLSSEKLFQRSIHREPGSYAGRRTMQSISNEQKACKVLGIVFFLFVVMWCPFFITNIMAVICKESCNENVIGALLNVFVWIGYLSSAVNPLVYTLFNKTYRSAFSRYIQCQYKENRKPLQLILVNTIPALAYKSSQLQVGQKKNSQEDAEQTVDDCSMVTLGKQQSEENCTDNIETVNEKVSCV
As to the kind of experiment: 5-HT2 Functional Assay: Calcium Mobilization (FLIPR). The class given is cell-based. The conditions noted are these: for Emax: read-out: Efficacy (Emax %). As for the experimental part:
5-HT2 Functional Assay: Calcium Mobilization
The receptor-mediated mobilization of intracellular calcium ([Ca^2+]i) was studied using the Fluorescence Imaging Plate Reader (FLIPR) instrument. Rat vascular smooth muscle cells, A7r5, were grown in a normal media of DMEM/10% FBS and 10 μg/ml gentamycin. Confluent cell monolayers were trypsinized, pelleted, and re-suspended in normal media. Cells were seeded in a 50 μL volume at a density of 20,000 cells per well in a black wall, 96-well tissue culture plate and grown for 2 days. On the day of the experiment, one vial of FLIPR Calcium Assay Kit dye was re-suspended in 50 ml of a FLIPR buffer consisting of Hank's Balanced Salt Solution (HBSS), 20 mM HEPES, and 2.5 mM probenecid, pH 7.4. Cells were loaded with the calcium-sensitive dye by addition of an equal volume (50 μl) to each well of the 96-well plate and incubated with dye for 1 h at 23° C. Typically, test compounds were stored at […] in 50% DMSO/50% Ethanol solvent. Compounds were diluted 1:50 in 20% DMSO/20% Ethanol. For dose-response experiments, compounds were diluted 1:50 in FLIPR buffer and serially diluted 1:10 to give a 5- or 8-point dose-response curve.
At the beginning of an experimental run, a signal test was performed to check the basal fluorescence signal from the dye-loaded cells and the uniformity of the signal across the plate. The basal fluorescence was adjusted between 8000-12000 counts by modifying the exposure time, the camera F-stop, or the laser power. The instrument settings for a typical assay were as follows: laser power 0.3-0.6 W, camera F-stop F/2, and exposure time 0.4 sec. An aliquot (25 μl) of the test compound was added to the existing 100 μl dye-loaded cells at a dispensing speed of 50 μl/sec. Fluorescence data were collected in real-time at 1.0 sec intervals for the first 60 sec and at 6.0 sec intervals for an additional 120 sec. Responses were measured as peak fluorescence intensity minus basal and where appropriate were expressed as a percentage of a maximum 5-HT-induced response.

The target in test [2] is 5-HT2 receptors (Rattus norvegicus, UniProt P14842). As to the kind of experiment: 5-HT2 Receptor Binding Assay ([125I]DOI competition). Also noted: species or system rat or human. Conditions: inhibition of [125I]DOI binding, cerebral cortex homogenates. Here is the method: 5-HT2 Receptor Binding Assay
Sequence of 5-HT2 receptors (P14842 whole entry): as above
The assay mixture is incubated for 1 hour at 23° C. in polypropylene tubes and the assays terminated by rapid vacuum filtration over Whatman GF/B glass fiber filters previously soaked in 0.3% polyethyleneimine using ice-cold buffer. Test compounds (at different concentrations) are substituted for methiothepin. Filter-bound radioactivity is determined by scintillation spectrometry on a beta counter.

Test [3] has as its system lasered (hypertensive) eyes of conscious cynomolgus monkeys. As to the kind of experiment: Acute IOP Response in Lasered (Hypertensive) Eyes of Conscious Cynomolgus Monkeys. Conditions: 300 μg topical; for % IOP change 1 hr: 1 hr after dose; for % IOP change 3 hr: 3 hr after dose; for % IOP change 6 hr: 6 hr after dose. The format is in vivo, cynomolgus monkey. Here is the method: Acute IOP Response in Lasered (Hypertensive) Eyes of Conscious Cynomolgus Monkeys
Intraocular pressure (IOP) can be determined with an Alcon Pneumatonometer after light corneal anesthesia with 0.1% proparacaine. Eyes are washed with saline after each measurement. After a baseline IOP measurement, test compound is instilled in one 30 μL aliquot to the right eyes only of nine cynomolgus monkeys. Vehicle is instilled in the right eyes of six additional animals. Subsequent IOP measurements are taken at 1, 3, and 6 hours.

Setting [4] is: percentage of maximum 5-HT-induced response, A7r5 cells.

Counter-ions that a name gives are not always drawn. Like-named read-outs stand apart in the source and are kept apart here.

With `COc1ccc(Cc2cc(OC)c(C[C@@H](C)N)cc2OC)cc1` [Example 18, (R)-2-[2,5-Dimethoxy-4-(4-methoxy-benzyl)-phenyl]-1-methyl-ethylamine hydrochloride], in test [1], the EC50 was found to be 220 nM. In addition, the maximal response (Emax) in test [1] (setting [4]) is 23%.

As for `COc1cc(C[C@@H](C)N)c(OC)cc1Cc1ccc(Cl)cc1` [Example 21, (R)-2-[4-(4-Chloro-benzyl)-2,5-dimethoxy-phenyl]-1-methyl-ethylamine hydrochloride], in test [1], the concentration giving a half-maximal response (EC50) came out at 963 nM. In addition, in test [1] (setting [4]), the Emax was determined as 39%.

In the case of `COc1cc(C[C@@H](C)N)c(OC)cc1CCCSC` [Example 5, (R)-2-[2,5-Dimethoxy-4-(3-methylsulfanyl-propyl)-phenyl]-1-methyl-ethylamine hydrochloride], in test [1], the concentration for a half-maximal effect (EC50) came out at 37 nM. The maximal effect (Emax) in test [1] (setting [4]) was 21%.

As to `COc1cc(C[S+](C)[O-])c(OC)cc1CC(C)N` (stereo not shown) [Example 15, 2-(4-Methanesulfinylmethyl-2,5-dimethoxy-phenyl)-1-methyl-ethylamine trifluoroacetate], in test [1], the concentration for a half-maximal effect (EC50) is 7600 nM. In addition, the Emax in test [1] (setting [4]) came to 37%.

For `COc1cccc(Cc2cc(OC)c(C[C@@H](C)N)cc2OC)c1` [Example 20, (R)-2-[2,5-Dimethoxy-4-(3-methoxy-benzyl)-phenyl]-1-methyl-ethylamine hydrochloride], in test [1], the 50% effective concentration (EC50) came out at 257 nM. For the same molecule, in test [1] (setting [4]), the maximum response (Emax) stood at 53%.

Take `COc1cc(C[C@@H](C)N)c(OC)cc1CC1CCCS1` (stereo partly drawn) [Example 13, (R)-2-[2,5-Dimethoxy-4-(tetrahydro-thiophen-2-ylmethyl)-phenyl]-1-methyl-ethylamine hydrochloride]: in test [1], the EC50 was 560 nM. Moreover, the Emax in test [1] (setting [4]) is 81%.

Turning to `COc1cc(C[C@@H](C)N)c(OC)cc1CC1CCCO1` (stereo partly drawn) [Example 12, (R)-2-[2,5-Dimethoxy-4-(tetrahydro-furan-2-ylmethyl)-phenyl]-1-methyl-ethylamine hydrochloride], the EC50 in test [1] stood at 82 nM. The Emax in test [1] (setting [4]) came out at 73%.

Turning to `COc1cc(C[C@@H](C)N)c(OC)cc1Cc1ccccc1` [Example 17, (R)-2-(4-Benzyl-2,5-dimethoxy-phenyl)-1-methyl-ethylamine hydrochloride], in test [1], the EC50 turned out to be 310 nM. For the same molecule, the maximum response (Emax) in test [1] (setting [4]) turned out to be 43%.

As to “(R)-2-(4-Furan-2-ylmethyl-2,5-dimethoxy-phenyl)-1-methyl-ethylamine hydrochloride [Example 11]”, the EC50 in test [1] (intracellular calcium mobilization, A7r5 cells, FLIPR, read-out: EC50) worked out at 120 nM. Also, the “Efficacy (Emax %)” value in test [1] (setting [4]) was found to be 55%. Moreover, the concentration for half-maximal inhibition (IC50) in test [2] worked out at 0.36 nM.

As to `COc1cc(CC(C)N)c(OC)cc1CSC` (stereo not shown) [Example 14, 2-(2,5-Dimethoxy-4-methylsulfanylmethyl-phenyl)-1-methyl-ethylamine; hydrochloride], the 50% effective concentration (EC50) in test [1] worked out at 68 nM. Besides, in test [1] (setting [4]), the Emax was 52%.

Turning to `COCCCc1cc(OC)c(C[C@@H](C)N)cc1OC` [Example 6, (R)-2-[2,5-Dimethoxy-4-(3-methoxy-propyl)-phenyl]-1-methyl-ethylamine hydrochloride], in test [1], the half-maximal effective concentration (EC50) turned out to be 22 nM. Also, the Emax in test [1] (setting [4]) was 45%.

As to `COCCc1cc(OC)c(C[C@@H](C)N)cc1OC.Cl` [Example 3, (R)-2-[2,5-Dimethoxy-4-(2-methoxy-ethyl)-phenyl]-1-methyl-ethylamine hydrochloride], in test [1], the EC50 came out at 78 nM. For the same molecule, the maximal response (Emax) in test [1] (setting [4]) turned out to be 53%. Besides, in test [3], the “% IOP change 1 hr” value is −5.2%, the “% IOP change 3 hr” value is listed as −16.3% and the “% IOP change 6 hr” value is −21.5%.

Turning to `COc1cc(C[C@@H](C)N)c(OC)cc1CC1=NCCS1` [Example 10, (R)-2-[4-(4,5-Dihydro-thiazol-2-ylmethyl)-2,5-dimethoxy-phenyl]-1-methyl-ethylamine hydrochloride], the EC50 in test [1] turned out to be 600 nM. For the same molecule, the maximal response (Emax) in test [1] (setting [4]) came out at 52%.

As for `COc1ccccc1Cc1cc(OC)c(C[C@@H](C)N)cc1OC` [Example 19, (R)-2-[2,5-Dimethoxy-4-(2-methoxy-benzyl)-phenyl]-1-methyl-ethylamine hydrochloride], the concentration for a half-maximal effect (EC50) in test [1] was found to be 660 nM. The Emax in test [1] (setting [4]) was found to be 22%.

`COc1cc(C[C@@H](C)N)c(OC)cc1Cc1nc(C)no1` [Example 2, (R)-2-[2,5-Dimethoxy-4-(3-methyl-[1,2,4]oxadiazol-5-ylmethyl)-phenyl]-1-methyl-ethylamine hydrochloride]: the EC50 in test [1] is 1060 nM. Further, the Emax in test [1] (setting [4]) amounted to 23%.

For `COc1cc(CC(C)N)c(OC)cc1CCSC.Cl` (stereo not shown) [Example 4, 2-[2,5-Dimethoxy-4-(2-methylsulfanyl-ethyl)-phenyl]-1-methyl-ethylamine hydrochloride], the EC50 in test [1] was found to be 94 nM. Moreover, in test [1] (setting [4]), the maximal effect (Emax) came out at 51%. In test [3], the “% IOP change 1 hr” value is given as −3.5%, the “% IOP change 3 hr” value is −14.8% and the “% IOP change 6 hr” value is on record as −16.1%.

As for `COc1cc(C)c(OC(C)=O)cc1CC(C)N` (stereo not shown) [Example 9, Acetic acid 5-(2-Amino-propyl)-4-methoxy-2-methyl-phenyl ester hydrochloride], in test [1], the EC50 amounted to 4900 nM. Further, the Emax in test [1] (setting [4]) stood at 37%.

In the case of `COCSCCc1cc(OC)c(C[C@@H](C)N)cc1OC` [Example 7, (R)-2-[2,5-Dimethoxy-4-(2-methoxymethylsulfanyl-ethyl)-phenyl]-1-methyl-ethylamine hydrochloride], the EC50 in test [1] came out at 91 nM. In test [1] (setting [4]), the Emax amounted to 32%.

As to `CCOC(=O)Cc1cc(OC)c(C[C@@H](C)N)cc1OC` [Example 1, [(R)-4-(2-Amino-propyl)-2,5-dimethoxy-phenyl]-acetic acid ethyl ester hydrochloride], the EC50 in test [1] turned out to be 1100 nM. The maximum response (Emax) in test [1] (setting [4]) came to 24%.

Regarding `COc1cc(CC(C)N)c(OC)cc1CC[S+](C)[O-]` (stereo not shown) [Example 16, 2-[4-(2-Methanesulfinyl-ethyl)-2,5-dimethoxy-phenyl]-1-methyl-ethylamine hydrochloride], in test [1], the EC50 stood at 870 nM. In test [1] (setting [4]), the Emax was determined as 40%.

For `COc1cc(C)c(OS(C)(=O)=O)cc1CC(C)N` (stereo not shown) [Example 8, Methanesulfonic acid 5-(2-amino-propyl)-4-methoxy-2-methyl-phenyl ester hydrochloride], the EC50 in test [1] was determined as 890 nM. The Emax in test [1] (setting [4]) was 30%.
